Source: BindingDB's records for doi:10.1016/j.ejmech.2010.02.027 (University of Florida, 2010)

Molecular target: Neuronal acetylcholine receptor subunit alpha-4/beta-2 (Rattus norvegicus, UniProt P09483+P12390)
Test: Displacement of [3H]cytisine from alpha4beta2 nAChR in rat brain membrane after 3 hrs

Neuronal acetylcholine receptor subunit alpha-4/beta-2, sequence (P09483 whole entry): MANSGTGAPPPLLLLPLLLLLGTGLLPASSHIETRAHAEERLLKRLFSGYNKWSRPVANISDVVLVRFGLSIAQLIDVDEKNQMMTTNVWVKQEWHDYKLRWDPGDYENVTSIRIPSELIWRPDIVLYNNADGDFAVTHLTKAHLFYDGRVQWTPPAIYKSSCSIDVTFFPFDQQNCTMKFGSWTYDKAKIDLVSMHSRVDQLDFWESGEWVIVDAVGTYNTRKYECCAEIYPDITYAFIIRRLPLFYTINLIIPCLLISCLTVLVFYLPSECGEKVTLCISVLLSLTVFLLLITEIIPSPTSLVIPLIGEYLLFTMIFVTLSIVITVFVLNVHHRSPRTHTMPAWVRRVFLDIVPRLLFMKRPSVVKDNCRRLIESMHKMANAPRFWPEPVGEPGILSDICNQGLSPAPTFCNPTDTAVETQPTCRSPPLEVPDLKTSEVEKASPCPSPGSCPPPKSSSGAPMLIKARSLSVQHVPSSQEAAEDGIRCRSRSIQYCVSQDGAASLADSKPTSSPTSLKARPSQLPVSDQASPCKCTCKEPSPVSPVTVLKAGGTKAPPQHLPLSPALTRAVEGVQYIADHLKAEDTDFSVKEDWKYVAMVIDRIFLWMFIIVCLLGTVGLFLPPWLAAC
Neuronal acetylcholine receptor subunit alpha-4/beta-2, sequence (P12390 whole entry): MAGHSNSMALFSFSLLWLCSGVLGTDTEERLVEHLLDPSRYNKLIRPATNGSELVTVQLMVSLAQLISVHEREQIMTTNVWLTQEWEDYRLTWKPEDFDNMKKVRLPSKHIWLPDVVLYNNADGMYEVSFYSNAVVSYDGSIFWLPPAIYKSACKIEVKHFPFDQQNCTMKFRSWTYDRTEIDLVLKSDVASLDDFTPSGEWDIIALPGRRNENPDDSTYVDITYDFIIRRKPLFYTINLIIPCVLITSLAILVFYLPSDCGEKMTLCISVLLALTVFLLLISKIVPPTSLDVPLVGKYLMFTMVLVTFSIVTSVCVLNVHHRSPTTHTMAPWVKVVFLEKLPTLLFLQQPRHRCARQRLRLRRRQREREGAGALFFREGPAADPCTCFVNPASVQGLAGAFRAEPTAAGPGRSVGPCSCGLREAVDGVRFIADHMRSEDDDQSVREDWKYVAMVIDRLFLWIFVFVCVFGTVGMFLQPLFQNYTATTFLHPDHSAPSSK

COc1cc(/C=C2\CCCN=C2c2cccnc2)cc(OC)c1OC [3-(3,4,5-Trimethoxybenzylidene)anabaseine]
Ki: 669 nM

CCC(CC)Oc1cc(OC)ccc1/C=C1\CCCN=C1c1cccnc1 [3-[2-(Pentan-3-yloxy)-4-methoxybenzylidene]anabaseine]
Ki: 367 nM

CN(C)c1ccc(/C=C2\CCCN=C2c2cccnc2)cc1 [3-(4-Dimethylaminobenzylidene)anabaseine]
Ki: 770 nM

CC(=O)Oc1ccc(/C=C2\CCCN=C2c2cccnc2)cc1 [3-(4-Acetoxybenzylidene)anabaseine]
Ki: 602 nM

Nc1ccc(/C=C2\CCCN=C2c2cccnc2)cc1 [3-(4-Aminobenzylidene)anabaseine]
Ki: 921 nM

C(=C1/CCCN=C1c1cccnc1)/c1cc2ccccc2o1 [3-(Benzofuran-2-ylmethylene)anabaseine]
Ki: 772 nM

CC(=O)Nc1ccc(/C=C2\CCCN=C2c2cccnc2)cc1 [N-(4-((2-(pyridin-3-yl)-5,6-dihydropyridin-3(4H)-ylidene)methyl)phenyl)acetamide]
Ki: 420 nM

COc1ccc(/C=C2\CCCN=C2c2cccnc2)c(OC(C)C)c1 [3-(2-i-Propoxy-4-methoxybenzylidene)anabaseine]
Ki: 770 nM

CCCc1ccc(/C=C2\CCCN=C2c2cccnc2)cc1 [3-(4-n-Propylbenzylidene)anabaseine]
Ki: 51 nM
